From the supplement of paper PMC4932681

How the values were obtained:
Assay in all cases: viability inhibition at highest dose (% inhibition); higher = more growth inhibition
[1] = test system: T-47D Tam1; settings: 4-OH-tamoxifen in medium 1 µM; 72 h
Protocol: (§1)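 Percent inhibition of viability (CellTiter-Glo, 72 h) at the highest tested concentration (D5), normalised to DMSO (0%) and 100 µM benzethonium chloride (100%). Resistant lines and the 'in 1µM tamoxifen' arms were tested in 1 µM 4-OH-tamoxifen.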

[2] = test system: MCF-7; settings: 72 h
Protocol: as §1

[3] = test system: ZR-75-1 Tam1; settings: 4-OH-tamoxifen in medium 1 µM; 72 h
Protocol: as §1

[4] = test system: BT-474 Tam1; settings: 4-OH-tamoxifen in medium 1 µM; 72 h
Protocol: as §1

[5] = test system: ZR-75-1 Tam2; settings: 4-OH-tamoxifen in medium 1 µM; 72 h
Protocol: as §1

[6] = test system: MCF-7 Tam1; settings: 4-OH-tamoxifen in medium 1 µM; 72 h
Protocol: as §1

[7] = test system: BT-474 Tam2; settings: 4-OH-tamoxifen in medium 1 µM; 72 h
Protocol: as §1

[8] = test system: ZR-75-1; settings: 72 h
Protocol: as §1

[9] = test system: T-47D Tam2; settings: 4-OH-tamoxifen in medium 1 µM; 72 h
Protocol: as §1

[10] = test system: T-47D; settings: 72 h
Protocol: as §1

[11] = test system: BT-474; settings: 72 h
Protocol: as §1

Structure (SMILES): C=CC(=O)Nc1cc2c(Nc3ccc(F)c(Cl)c3)ncnc2cc1OCCCN1CCOCC1 [Canertinib] (drug 10000 nM)
- viability inhibition at highest dose [1]: 46.6
- viability inhibition at highest dose ([2]; 4-OH-tamoxifen in medium 0 µM): 64.2
- viability inhibition at highest dose ([2]; 4-OH-tamoxifen in medium 1 µM): 71.1
- viability inhibition at highest dose [3]: 37.1
- viability inhibition at highest dose [4]: 90
- viability inhibition at highest dose [5]: 44.3
- viability inhibition at highest dose [6]: 28
- viability inhibition at highest dose [7]: 93.5
- viability inhibition at highest dose ([8]; 4-OH-tamoxifen in medium 0 µM): 41.4
- viability inhibition at highest dose ([8]; 4-OH-tamoxifen in medium 1 µM): 35.5
- viability inhibition at highest dose [9]: 63.2
- viability inhibition at highest dose ([10]; 4-OH-tamoxifen in medium 0 µM): 38.9
- viability inhibition at highest dose ([10]; 4-OH-tamoxifen in medium 1 µM): 24.2
- viability inhibition at highest dose ([11]; 4-OH-tamoxifen in medium 0 µM): 80.1
- viability inhibition at highest dose ([11]; 4-OH-tamoxifen in medium 1 µM): 92.3

Structure (SMILES): CCCCCOC(=O)Nc1nc(=O)n([C@@H]2O[C@H](C)[C@@H](O)[C@H]2O)cc1F [Capecitabine] (drug 10000 nM)
- viability inhibition at highest dose [1]: 1.61
- viability inhibition at highest dose ([2]; 4-OH-tamoxifen in medium 0 µM): -4.69
- viability inhibition at highest dose ([2]; 4-OH-tamoxifen in medium 1 µM): -0.939
- viability inhibition at highest dose [3]: 11.1
- viability inhibition at highest dose [4]: 0.103
- viability inhibition at highest dose [5]: 7.55
- viability inhibition at highest dose [6]: -12
- viability inhibition at highest dose [7]: -6.54
- viability inhibition at highest dose ([8]; 4-OH-tamoxifen in medium 0 µM): 24.8
- viability inhibition at highest dose ([8]; 4-OH-tamoxifen in medium 1 µM): 0.654
- viability inhibition at highest dose [9]: 2.81
- viability inhibition at highest dose ([10]; 4-OH-tamoxifen in medium 0 µM): -17.6
- viability inhibition at highest dose ([10]; 4-OH-tamoxifen in medium 1 µM): -17
- viability inhibition at highest dose ([11]; 4-OH-tamoxifen in medium 0 µM): -9.89
- viability inhibition at highest dose ([11]; 4-OH-tamoxifen in medium 1 µM): -7.23

Structure (SMILES): O=C(O)C1(C(=O)O)CCC1.[NH2-].[NH2-].[Pt+2] [Carboplatin] (drug 10000 nM)
- viability inhibition at highest dose [1]: -4.98
- viability inhibition at highest dose ([2]; 4-OH-tamoxifen in medium 0 µM): 1.69
- viability inhibition at highest dose ([2]; 4-OH-tamoxifen in medium 1 µM): 6.48
- viability inhibition at highest dose [3]: 2.36
- viability inhibition at highest dose [4]: -1.28
- viability inhibition at highest dose [5]: -0.671
- viability inhibition at highest dose [6]: -6.52
- viability inhibition at highest dose [7]: 3.89
- viability inhibition at highest dose ([8]; 4-OH-tamoxifen in medium 0 µM): -16.2
- viability inhibition at highest dose ([8]; 4-OH-tamoxifen in medium 1 µM): -1.87
- viability inhibition at highest dose [9]: 1.93
- viability inhibition at highest dose ([10]; 4-OH-tamoxifen in medium 0 µM): -16.3
- viability inhibition at highest dose ([10]; 4-OH-tamoxifen in medium 1 µM): -18
- viability inhibition at highest dose ([11]; 4-OH-tamoxifen in medium 0 µM): -12.2
- viability inhibition at highest dose ([11]; 4-OH-tamoxifen in medium 1 µM): -19

Structure (SMILES): CC(C)C[C@H](NC(=O)[C@H](CCc1ccccc1)NC(=O)CN1CCOCC1)C(=O)N[C@@H](Cc1ccccc1)C(=O)N[C@@H](CC(C)C)C(=O)[C@@]1(C)CO1 [Carfilzomib] (drug 1000 nM)
- viability inhibition at highest dose [1]: 96.3
- viability inhibition at highest dose ([2]; 4-OH-tamoxifen in medium 0 µM): 91.8
- viability inhibition at highest dose ([2]; 4-OH-tamoxifen in medium 1 µM): 96.5
- viability inhibition at highest dose [3]: 80.2
- viability inhibition at highest dose [4]: 97.8
- viability inhibition at highest dose [5]: 75.9
- viability inhibition at highest dose [6]: 92.7
- viability inhibition at highest dose [7]: 93.7
- viability inhibition at highest dose ([8]; 4-OH-tamoxifen in medium 0 µM): 76.9
- viability inhibition at highest dose ([8]; 4-OH-tamoxifen in medium 1 µM): 85.7
- viability inhibition at highest dose [9]: 96.8
- viability inhibition at highest dose ([10]; 4-OH-tamoxifen in medium 0 µM): 86.2
- viability inhibition at highest dose ([10]; 4-OH-tamoxifen in medium 1 µM): 91.1
- viability inhibition at highest dose ([11]; 4-OH-tamoxifen in medium 0 µM): 79.9
- viability inhibition at highest dose ([11]; 4-OH-tamoxifen in medium 1 µM): 96.2

Structure (SMILES): O=NN(CCCl)C(=O)NCCCl [Carmustine] (drug 10000 nM)
- viability inhibition at highest dose [1]: 0.948
- viability inhibition at highest dose ([2]; 4-OH-tamoxifen in medium 0 µM): -2.85
- viability inhibition at highest dose ([2]; 4-OH-tamoxifen in medium 1 µM): 5.33
- viability inhibition at highest dose [3]: -2.37
- viability inhibition at highest dose [4]: -0.31
- viability inhibition at highest dose [5]: 0.516
- viability inhibition at highest dose [6]: -12.7
- viability inhibition at highest dose [7]: 4.36
- viability inhibition at highest dose ([8]; 4-OH-tamoxifen in medium 0 µM): -12.9
- viability inhibition at highest dose ([8]; 4-OH-tamoxifen in medium 1 µM): -8.4
- viability inhibition at highest dose [9]: 2.64
- viability inhibition at highest dose ([10]; 4-OH-tamoxifen in medium 0 µM): -12.6
- viability inhibition at highest dose ([10]; 4-OH-tamoxifen in medium 1 µM): -5.73
- viability inhibition at highest dose ([11]; 4-OH-tamoxifen in medium 0 µM): -6.34
- viability inhibition at highest dose ([11]; 4-OH-tamoxifen in medium 1 µM): -3.07

Structure (SMILES): COc1cc2c(Oc3ccc4[nH]c(C)cc4c3F)ncnc2cc1OCCCN1CCCC1 [Cediranib (AZD2171, Recentin)] (drug 1000 nM)
- viability inhibition at highest dose [1]: 2.94
- viability inhibition at highest dose ([2]; 4-OH-tamoxifen in medium 0 µM): 11.5
- viability inhibition at highest dose ([2]; 4-OH-tamoxifen in medium 1 µM): 2.46
- viability inhibition at highest dose [3]: 4.06
- viability inhibition at highest dose [4]: 15.2
- viability inhibition at highest dose [5]: 5.44
- viability inhibition at highest dose [6]: 1.79
- viability inhibition at highest dose [7]: 6.19
- viability inhibition at highest dose ([8]; 4-OH-tamoxifen in medium 0 µM): 9.26
- viability inhibition at highest dose ([8]; 4-OH-tamoxifen in medium 1 µM): 4.94
- viability inhibition at highest dose [9]: 2.12
- viability inhibition at highest dose ([10]; 4-OH-tamoxifen in medium 0 µM): 2.79
- viability inhibition at highest dose ([10]; 4-OH-tamoxifen in medium 1 µM): 7.26
- viability inhibition at highest dose ([11]; 4-OH-tamoxifen in medium 0 µM): 1.02
- viability inhibition at highest dose ([11]; 4-OH-tamoxifen in medium 1 µM): 39.4

Structure (SMILES): Cc1ccc(-c2cc(C(F)(F)F)nn2-c2ccc(S(N)(=O)=O)cc2)cc1 [Celecoxib] (drug 10000 nM)
- viability inhibition at highest dose [1]: 2.27
- viability inhibition at highest dose ([2]; 4-OH-tamoxifen in medium 0 µM): 15.2
- viability inhibition at highest dose ([2]; 4-OH-tamoxifen in medium 1 µM): 5.23
- viability inhibition at highest dose [3]: 4.71
- viability inhibition at highest dose [4]: 12.6
- viability inhibition at highest dose [5]: -10.3
- viability inhibition at highest dose [6]: 4.31
- viability inhibition at highest dose [7]: 4.93
- viability inhibition at highest dose ([8]; 4-OH-tamoxifen in medium 0 µM): -12
- viability inhibition at highest dose ([8]; 4-OH-tamoxifen in medium 1 µM): 11.6
- viability inhibition at highest dose [9]: 18.3
- viability inhibition at highest dose ([10]; 4-OH-tamoxifen in medium 0 µM): -3.21
- viability inhibition at highest dose ([10]; 4-OH-tamoxifen in medium 1 µM): 5.57
- viability inhibition at highest dose ([11]; 4-OH-tamoxifen in medium 0 µM): -0.849
- viability inhibition at highest dose ([11]; 4-OH-tamoxifen in medium 1 µM): 1.11
